Experiments:
elastase = target: elastase; parameters: method as in doi:10.19894/j.issn.1000-0518.210248; conditions: elastase inhibition, earlier study ref 61; cited from earlier work
[1] = target: T1, porcine pancreatic elastase (PPE) (Sus scrofa, UniProt P00772); test: Synchronous fluorescence spectra of PPE; conditions: Δλ = 60 nm, PPE 2 μM, flavonoid 0-80 μM, 298 K
T1 construct: purchased Sigma-Aldrich (St. Louis, MO, United States)
Procedure: For the synchronous fluorescence spectroscopy experiments, the configuration of the solution preparation was the same as that used in experiment 2.3. Synchronous fluorescence spectra of PPE-quercetin, PPE-hyperoside, PPE-luteolin, and PPE-luteoloside were recorded at 298 K.

[2] = target: T1, porcine pancreatic elastase (PPE); test: FT-IR spectra of PPE-monomer complexes; conditions: PPE 10 μM, flavonoid 100 μM
Procedure: FTIR spectra were obtained using the potassium bromide (KBr) compression method with a Nicolet IS-50 spectrometer (Thermo Fisher Scientific, Waltham, MA, United States). […] The sheets were then dried at 45 °C and pressed. Blank background for the PBS buffer sheets. The spectral region between 4,000 and 500 cm^−1 was selected to examine changes in the secondary structure resulting from enzyme-drug interactions. All samples were assayed after drying and the experimental conditions were consistent for each group of assays.

[3] = target: T1, porcine pancreatic elastase (PPE); test: Intrinsic fluorescence quenching of PPE: Stern-Volmer, binding constants, thermodynamics; conditions: for Kd: Ka binding constant
Procedure: Fluorescence measurements were performed using a model F-7000 fluorescence spectrometer (Hitachi, Tokyo, Japan). Elastase solution (2,000 μL in Tris–HCl buffer solution) was mixed with inhibitor solutions at different concentrations in a 1.0 cm quartz cell at 298, 303, and 310 K. The final concentrations of the four natural flavonoids and elastase were identical to those used to obtain the synchronous fluorescence spectra. The fluorescence emission spectra were recorded within the range of 285–500 nm, following excitation at 280 nm. The excitation and emission slit widths were set as 2.5 nm. The scan speed was 1,200 nm/min and the photomultiplier tube (PMT) voltage was 630 V. Fluorescence intensities were corrected for inner filter and dilution effects before analyzing the binding and quenching data.
To determine the type of fluorescence quenching of the monomer interacting with PPE, the Stern-Volmer equation was used ([20]–[22]):
F0/F=KSV[Q]+1=Kqτ0[Q]+1 (2)
where F0 and F are the fluorescence intensities of PPE before and after the addition of different monomer solutions, respectively, Ksv is the quenching constant, [Q] is the concentration of different drugs, Kq is the quenching rate constant, τ0 is the average fluorescence lifetime of the substance in the absence of a quencher, and τ0 for the general biological macromolecule is 1 × 10^−8 s ([20], [23], [24]).
According to the correction formula, the binding constant (Ka) and number of binding points (n) for the actions of the four monomers and PPE were calculated as follows ([25]–[27]):
lgF0−F/F=nlgKa−nlg1/[Q0]−[P0]F0−F/F0 (3)
where [ Q0 ] and [P0] are the drug and PPE concentrations, respectively.
where K is the binding constant of the interaction, R is the gas constant, ΔH, ΔG, and ΔS are enthalpy, Gibbs energy, and entropy change.

[4] = target: T1, porcine pancreatic elastase (PPE); test: CD spectroscopy, secondary structure of PPE; conditions: PPE 5 μM, flavonoid 2.5 μM, 298 K
Procedure: The CD spectra of PPE, PPE-quercetin, PPE-hyperoside, PPE-luteolin, and PPE-luteoloside were obtained using an MOS-500 CD spectrometer (Biologic Science Instruments, Seyssinet-Pariset, France). […] Set at a temperature of 298 K. The signal was recorded from 190 to 260 nm using a path length of 1 mm, acquisition duration of 0.5 s, and scanning step of 2 nm. The CD spectra were averaged after performing three scans and correcting for the background value of the phosphate buffer. All results were documented as CD ellipticity in degrees.

[5] = target: T1, porcine pancreatic elastase (PPE); test: Fluorescence resonance energy transfer and binding distance; conditions: [PPE] = [flavonoid] = 10 μM, 298 K
Procedure: The PPE-quercetin, PPE-hyperoside, PPE-luteolin, and PPE-luteoloside binding distances were calculated according to the fluorescence resonance energy transfer theory ([31]–[33]):
J=∑FD(λ)εA(λ)λ^4Δλ/∑FD(λ)Δλ (9)
where k^2 is the dipole moment spatial orientation factor, usually taking the average 2/3; φ is the quantum efficiency of PPE, usually a quantum efficiency of Try residues of 0.15; n is the refractive index of the medium, representing the average of water and organic matter; J is the overlap integral of the absorption spectra and the fluorescence spectra; and ɛA(λ) is the molar extinction coefficient ([34]–[36]).

[6] = target: T1, porcine pancreatic elastase (PPE); test: Elastase inhibition assay, fluorescent substrate MeOSuc-Ala-Ala-Pro-Val-AMC; format: biochemical
Procedure: Elastase was selected as the enzyme target and MeOSuc-Ala-Ala-Pro-Val-AMC as the substrate for the enzymatic reaction. According to the principle of enzyme reactions, an in vitro target enzyme drug screening model was established by measuring the relative fluorescence intensity for drug screening and evaluation. The inhibition rate was measured using a FlexStation3 multifunctional plate reader (Molecular Devices, Shanghai, China). Elastase solution (50 μL, 5 × 10^−7 mol/L) was mixed with a fluorescent substrate (50 μL, 2 × 10^−5 mol/L), and Tris–HCl buffer solution was added to obtain a total volume of 200 μL. […] The excitation wavelength was adjusted to 380 nm, and the emission wavelength was recorded in the range 420–540 nm. A 200 μL buffer solution was used as the blank for reference. The relative fluorescence values of pure enzyme activity were recorded. Four monomer solutions of the same concentration were added separately and their relative fluorescence values were measured under the same conditions. The concentration of each monomer was varied in different samples to obtain IC50 values. Inhibition rate (%) was calculated as follows:
Inhibition rate(%)=RFUPPE−RFUDrugs+PPE/RFUPPE×100% (1)
where the relative fluorescence unit (RFU) PPE refers to the relative fluorescence measured when only PPE and the fluorescent substrate are present without any inhibitors, and RFU Drugs+PPE refers to the relative fluorescence measured when both PPE and the test drug inhibitor are present.

[7] = target: T1, porcine pancreatic elastase (PPE); test: UV-vis absorption spectra of PPE with flavonoid; conditions: PPE 5 μM, flavonoid 15 μM, 298 K
Procedure: The UV–vis absorption spectra of porcine pancreatic elastase PPE (2.5 mL) were recorded using a Cary 300 spectrometer (Agilent, San Diego, CA, United States) in a quartz cuvette with a path length of 10 mm. PPE concentration was fixed at 5 μM and the drug concentrations were 0 and 15 μM. Tris–HCl solution (pH 7.6) was used as the blank. The control group was a solution of four flavonoid monomers at a final concentration of 15 μM. The spectra were recorded in the range of 200–500 nm with a slit width of 2 nm at 298 K.

T1 sequence (P00772 27-266): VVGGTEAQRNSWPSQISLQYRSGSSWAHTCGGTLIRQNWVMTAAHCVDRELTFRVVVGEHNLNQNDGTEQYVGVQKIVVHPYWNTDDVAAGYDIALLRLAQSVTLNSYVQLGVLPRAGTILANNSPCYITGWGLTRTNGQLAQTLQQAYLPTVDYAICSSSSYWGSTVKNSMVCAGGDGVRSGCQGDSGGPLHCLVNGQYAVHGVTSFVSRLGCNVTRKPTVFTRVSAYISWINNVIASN

CC(C)(C)C(=O)Oc1ccc(S(=O)(=O)Nc2ccccc2C(=O)NCC(=O)O)cc1 [sivelestat sodium]
IC50 (elastase): 9.98 µM

O=c1cc(-c2ccc(O)c(O)c2)oc2cc(O[C@@H]3O[C@H](CO)[C@@H](O)[C@H](O)[C@H]3O)cc(O)c12 [luteoloside]
red shift of Trp synchronous fluorescence [1]: 1 nm | amide I band of PPE after addition (from 1638.45) [2]: 1634.55 cm⁻¹ | KSV Stern-Volmer quenching constant ([3]; 298 K): 1.79 10^4 L•mol^−1 | Kq quenching rate constant ([3]; 298 K): 1.79 10^12 L•mol^−1•s^−1 | n number of binding sites ([3]; 298 K): 0.95 | ΔG ([3]; 298 K): -5.834 kcal/mol | KSV Stern-Volmer quenching constant ([3]; 303 K): 1.66 10^4 L•mol^−1 | Kq quenching rate constant ([3]; 303 K): 1.66 10^12 L•mol^−1•s^−1 | n number of binding sites ([3]; 303 K): 0.93 | ΔG ([3]; 303 K): -5.92 kcal/mol | KSV Stern-Volmer quenching constant ([3]; 310 K): 1.57 10^4 L•mol^−1 | Kq quenching rate constant ([3]; 310 K): 1.57 10^12 L•mol^−1•s^−1 | n number of binding sites ([3]; 310 K): 1.07 | ΔG ([3]; 310 K): -6.042 kcal/mol | Kd ([3]; 298 K): 52.4 µM | Kd ([3]; 303 K): 53.8 µM | Kd ([3]; 310 K): 55.2 µM | ΔH ([3]; van't Hoff, 298, 303, 310 K): -0.6989 kcal/mol | ΔS ([3]; van't Hoff, 298, 303, 310 K): 72.107 J/(mol•K) | decrease of α-helical structure [4]: 1.99% | α-helix (%) ([4]; PPE alone 7.50): 5.51% | Random coil (%) ([4]; PPE alone 41.00): 43.91% | β-sheet (%) ([4]; PPE alone 51.50): 50.58% | R0 [5]: 1.99 nm | binding distance r [5]: 2.71 nm | IC50 ([6]; 298 K): 61.3 µM | inhibition at 22.5 µM ([6]; read-out: Inhibition rate of PPE): 12.2% | blue shift of maximum absorption peak of PPE (275 nm) [7]: 8 nm

Reference: paper PMC12633754, “Elastase inhibition by natural flavonoids: mechanistic insights and potential therapeutic applications” (Frontiers in Nutrition, 2025)
